In patent US9913817B2, “Methods for preventing or reducing colon carcinogenesis” (Nogra Pharma Limited, priority 2008, dated 2018):

Experiments:
Assay type in all cases: cell-based
[1] = system: HCT116 A2.1 cells; assay: EGFP-based mutation rate assay at a (CA)13 repeat (Example 4); conditions: FIG. 4
Protocol: A EGFP-based assay similar to Example 3 was used to determine the changes in mutation rate upon incubation with various concentrations of disclosed compounds and to test whether the compounds improve the replication fidelity. A EGFP based assay was used to determine the changes in mutation rate at a (CA)13 repeat upon incubation with various concentrations of the compounds. Briefly, 1×10^3 EGFP negative HCT116 A2.1 cells were sorted into 24-well plates on a FACS Aria. 24 hours later cells were treated with the compounds for a period of 7 days. The total cell number (c) and the EGFP-positive fraction (mutant fraction (MF)) were analyzed by flow cytometry. The mutation rate (m/(CA)13/generation (gen) was estimated by m=MF/(gen+1) and gen=log 2(c/1000×cloning efficiency). The transient mutant (M1) and definitive mutant (M2) cells were distinguished.

[2] = system: HCT116 A2.1 cells; assay: EGFP-based mutation rate / replication fidelity assay (Example 3)
Protocol: A EGFP-based assay to determine the changes in mutation rate upon incubation with various concentrations of the compounds was used to test whether compounds improve the replication fidelity. Briefly, 1×10^3 EGFP negative HCT116 A2.1 cells were sorted into 24-well plates on a FACS Aria. 24 hours later cells were treated with the compounds for a period of 7 days and the mutant fraction was measured by flow cytometry.

[3] = system: HCT116 cells; assay: Cell cycle analysis by BrdU staining, HCT116; conditions: 10 mM-40 mM; 72 hour treatment
Protocol: BrdU staining was used to analyze cell cycle changes in HCT116 and HT29 cells upon 72 hour treatment with compound 39. Data represent the mean values of 3 independent experiments (* indicates a p<0.05 compared to control)

[4] = system: superoxide (O2−) released by activated neutrophils (PMN); assay: Superoxide scavenging, O2− assay with PMA-activated neutrophils, 90 min time course (Example 2); conditions: at the investigated concentrations; 100 nM PMA; measured every 15 min for 90 min; FIG. 2A/2B
Protocol: Compounds 14 and 34 were tested for their potential to scavenge superoxide (O2^−) released by activated neutrophils (PMN) using a standardized O2^− assay, similar to Example 1. Activated neutrophils (PMN) were used as O2^− donors. Briefly, 1×10^6 freshly isolated neutrophils were activated with 100 nM phorbol-myristate-acetate (PMA). The O2^− release was measured every 15 min for a 90 min period by lucigenin amplified chemiluminescence on a luminometer. Either non-activated PMNs or activated PMNs incubated with superoxide dismutase (2000 U/ml, SOD) was used as a control. Experiments were carried out in triplicates

## CCOC(Cc1ccc(N)cc1)C(=O)O (racemic) [compound 39, (±)-2-ethoxy-3-(4′-aminophenyl) propionic acid]
[1]; 10 mM up to 40 mM, p<0.05
  number of M1 (transient mutant) cells (in words): significantly lowered the number of M1 cells
[1]; 40 mM
  permanent mutant M2 population (in words): significant reduction
[2]; 20 mM, 7 days
  cell growth (in words): reduced cell growth
[2]; 20 mM, FIG. 3C, comparable to the effect of aspirin
  effect on M1 (in words): increase of M1
[2]; 7 days, FIG. 3C
  effect on mutant fraction M1 or M2 (in words): did not reduce the mutant fraction M1 or M2
[3]
  cell cycle distribution (in words): did not induce a significant change

## COc1ccc(N)cc1C(=O)NO [compound 14]
[4]
  superoxide scavenging properties (in words): significant scavenging properties

## CC1(C)OC(=O)c2cc(N)ccc2O1 [compound 28]
[2]; concentrations up to 1 mM, FIG. 3B
  changes in mutation rate (in words): does not appear to cause significant changes
